Measured values as given in publication PMC12298827, “Subchronic Toxicities of Four Per- and Polyfluoroalkyl Substances (PFASs) by Oral Exposure in Sprague–Dawley Rats” (Toxics, 2025).

Test system: male and female Sprague–Dawley rats
Test: 90-day subchronic oral gavage toxicity study
Format: in vivo, rat
Parameters: key to NOEL, absolute liver weight increase / LOEL, absolute liver weight increase / NOEL, relative kidney weight increase / LOEL, relative kidney weight increase / NOEL, absolute kidney weight increase / LOEL, absolute kidney weight increase / NOEL, relative liver weight increase / LOEL, relative liver weight increase: NR: no response, no statistically significant dose-dependent changes
Experimental: Subchronic (90-day) studies were performed in accordance with current U.S. EPA’s Toxic Substances Control Act Good Laboratory Practice (GLP) Standards, with the following two general exceptions to the GLP guidelines: Analysis of the dose formulations was conducted according to RTI-approved Standard Operating Procedures, and corn oil (the vehicle) was not characterized (certificate of analysis from the vendor is available in the appendices to the final reports). Male and female Sprague–Dawley rats (five dose levels plus a control, n = 10/sex/dose group, corn oil vehicle dose volume of 3 mL/kg; oral gavage) were used in these studies, and the rats were euthanized on SD 91. The dose levels for PFHI were 0, 12.5, 25, 50, 100, and 200 mg/kg-day. The dose levels for MHFPK were 0, 18.8, 37.5, 75, 150, and 300 mg/kg-day. The dose levels for PFNAC were 0, 0.1, 0.3, 1.0, 3.0, and 10 mg/kg-day for male rats and 0, 0.3, 1.0, 3.0, 10, and 30 mg/kg-day for female rats. For CTFPA, the dose levels were 0, 1.9, 3.8. 7.5, 15, and 30 mg/kg-day for male rats and 0, 6.3, 12.5, 25, 50, and 100 mg/kg-day for female rats. For each PFAS, three batches of dosing solution were prepared. The time between the batch preparation of the dosing solutions ranged between 29 and 39 days. Blood samples were collected from all the rats at termination for serum chemistry, hematology, coagulation, and the analysis of the parent PFAS chemical in the plasma. In vivo data collection and further detail on the endpoints examined postmortem are described below.
The rats were observed twice daily for morbidity and mortality throughout the study period. At least once prior to randomization to test groups and weekly thereafter, the rats were physically examined, and bodyweights were obtained. Feed consumption was quantified weekly starting on SD 1.
Neurotoxicity was evaluated using the functional observational battery (FOB) and measuring locomotor activity (LMA) 2–4 h post dosing on SDs 78–80 and 80–84, respectively. For both the 14- and 90-day studies, an ophthalmologic examination was conducted prior to randomization and near the end of the study, using indirect ophthalmoscopy and slit–lamp biomicroscopy (as needed) after the administration of a mydriatic solution.
Hematology, biochemistry, and coagulation endpoints were measured at the termination of the study. A Siemens Advia 2120i hematology analyzer (Siemens Healthineers, Erlangen, Germany) was used to measure (or calculate) the parameters related to the complete blood count, leukocyte differential count, and reticulocyte count. The hematology parameters are listed and described in Table 2. The prothrombin time […] and activated partial thromboplastin time (APTT) were measured using an Instrumentation Laboratory (Bedford, MA, USA) ACL Elite Pro coagulation analyzer (laser–nephelometric centrifugal method).
At necropsy, the rats were visually examined for external abnormalities and organ weights (absolute and relative to the BW and brain weight), which were recorded (paired organs weighed together). The tissues were preserved in 10% neutral buffered formalin (NBF), except for the ocular tissues, testes, and epididymides, which were preserved in modified Davidson’s fixative and later transferred to 10% NBF. Bone marrow smears were prepared from the femurs, and the slides were air-dried, fixed in methanol, stained, and stored at room temperature for possible future evaluation. The preserved tissues were embedded in paraffin, sectioned, stained with hematoxylin and eosin, and examined by a board-certified veterinary pathologist.
Statistical analysis was performed using Provantis™ Version 10 or greater (Instem LSS, Limited; Stone, Staffordshire, UK). Differences among the treatment groups compared to the control were evaluated using one-way analysis of variance (ANOVA) if the underlying assumptions of a normal distribution (Shapiro–Wilk test) and the homogeneity of the variance (Levene’s test) were satisfied. […]

FC(F)(F)C(F)(F)C(F)(F)C(F)(F)CCI [PFHI, 1H,1H,2H,2H-Perfluorohexyl iodide]
Bodyweight (BW) and bodyweight gain (90-day, both sexes, all doses): None in females; dose-dependent reduced BW changes in males in all the dose groups, but BW gain on SDs 1-90 was not significantly affected | Clinical observations (90-day, both sexes, all doses): None | Coagulation endpoints (90-day, both sexes, all doses): Dose-dependent minimal prolongations in PT (in males at ≥12.5 mg/kg-day and in females at ≥25 mg/kg-day | Feed consumption (90-day, both sexes, all doses): No changes in males; increased feed consumption in females at 25, 50, and 100 mg/kg-day but not at 200 mg/kg-day | Functional observational battery (90-day, both sexes, all doses): No changes | Gross lesions (90-day, both sexes, all doses): None considered as PFHI related | Hematology (90-day, both sexes, all doses): Minimal decreases in reticulocytes in males at ≥50 mg/kg-day; minimal increases in MPV in females and sporadically in males at 200 mg/kg-day and in both sexes at 50 and 100 mg/kg-day | Histopathology (90-day, both sexes, all doses): The kidney and liver ^5 of males at ≥100 mg/kg-day and the liver of females at 200 mg/kg-day | Locomotor activity (90-day, both sexes, all doses): No effects | Morbidity and mortality (90-day, both sexes, all doses): None | Ophthalmology (90-day, both sexes, all doses): No ocular lesions | Organ weight changes (90-day, both sexes, all doses): Mean absolute and/or relative dose-dependent organ weight increases in the liver of females at ≥100 mg/kg-day and males at ≥25 mg/kg-day and kidney weight increases only in males at ≥100 mg/kg-day ^5 | BMD10, absolute liver weight increase (female): 57.8 mg/kg-day | BMDL, absolute liver weight increase (female): 8.1 mg/kg-day | LOEL, absolute kidney weight increase (female): NR | LOEL, absolute liver weight increase (female): 200 mg/kg-day | LOEL, relative kidney weight increase (female): NR | LOEL, relative liver weight increase (female): 100 mg/kg-day | NOEL, absolute kidney weight increase (female): NR | NOEL, absolute liver weight increase (female): 100 mg/kg-day | NOEL, relative kidney weight increase (female): NR | NOEL, relative liver weight increase (female): 50 mg/kg-day | % BW Gain (female, 12.5 mg/kg-day): 61.51% | % Diff, % BW Gain (female, 12.5 mg/kg-day): 1.61% | % Diff, Total BW change (female, 12.5 mg/kg-day): 1.06% | % Diff, Total Food Consumed (female, 12.5 mg/kg-day): 0.12% | A/G (female, 12.5 mg/kg-day): 1.09±0.05 ratio | ALB (female, 12.5 mg/kg-day): 4.28 ± 0.37 g/dL | ALPi (female, 12.5 mg/kg-day): 42.8±13.0 U/L | APTT (female, 12.5 mg/kg-day): 18.80 s | BUN (female, 12.5 mg/kg-day): 16.8 ± 2.7 mg/dL | CHOL (female, 12.5 mg/kg-day): 110.5 ± 32.7 mg/dL | GLOB (female, 12.5 mg/kg-day): 3.94 ± 0.25 g/dL | GLUC (female, 12.5 mg/kg-day): 138.0 ± 29.9 mg/dL | HCT (female, 12.5 mg/kg-day): 46.90±1.85% | HGB (female, 12.5 mg/kg-day): 14.91 ± 0.54 g/dL | Kidney Weight (female, 12.5 mg/kg-day): 1.83 g | Kidney/Body Weight (female, 12.5 mg/kg-day): 0.58% | Kidney/Brain Weight (female, 12.5 mg/kg-day): 89.5% | Liver Weight (female, 12.5 mg/kg-day): 8.53 g | Liver/Body Weight (female, 12.5 mg/kg-day): 2.68% | Liver/Brain Weight (female, 12.5 mg/kg-day): 416% | MPV (female, 12.5 mg/kg-day): 7.10 ± 0.30 fL | PT (female, 12.5 mg/kg-day): 13.34 s | Total BW change (female, 12.5 mg/kg-day): 124.60 g | Total Food Consumed (female, 12.5 mg/kg-day): 1474 g | % BW Gain (female, 25 mg/kg-day): 60.67% | % Diff, % BW Gain (female, 25 mg/kg-day): 0.22% | % Diff, Total BW change (female, 25 mg/kg-day): 1.70% | % Diff, Total Food Consumed (female, 25 mg/kg-day): 7.27% | A/G (female, 25 mg/kg-day): 1.07±0.11 ratio | ALB (female, 25 mg/kg-day): 4.02 ± 0.39 g/dL | ALPi (female, 25 mg/kg-day): 54.9±21.9 U/L | APTT (female, 25 mg/kg-day): 18.59 s | BUN (female, 25 mg/kg-day): 16.2 ± 2.1 mg/dL | CHOL (female, 25 mg/kg-day): 114.9 ± 14.1 mg/dL | GLOB (female, 25 mg/kg-day): 3.78 ± 0.16 g/dL | GLUC (female, 25 mg/kg-day): 153.4 ± 30.6 mg/dL | HCT (female, 25 mg/kg-day): 48.01±1.96% | HGB (female, 25 mg/kg-day): 15.38 ± 0.54 g/dL | Kidney Weight (female, 25 mg/kg-day): 1.83 g | Kidney/Body Weight (female, 25 mg/kg-day): 0.57% | Kidney/Brain Weight (female, 25 mg/kg-day): 88.2% | Liver Weight (female, 25 mg/kg-day): 8.66 g | Liver/Body Weight (female, 25 mg/kg-day): 2.71% | Liver/Brain Weight (female, 25 mg/kg-day): 417% | MPV (female, 25 mg/kg-day): 7.32 ± 0.30 fL | PT (female, 25 mg/kg-day): 13.51 s | Total BW change (female, 25 mg/kg-day): 125.38 g | Total Food Consumed (female, 25 mg/kg-day): 1579 g | % BW Gain (female, 50 mg/kg-day): 65.42% | % Diff, % BW Gain (female, 50 mg/kg-day): 8.07% | % Diff, Total BW change (female, 50 mg/kg-day): 7.25% | % Diff, Total Food Consumed (female, 50 mg/kg-day): 8.31% | A/G (female, 50 mg/kg-day): 1.09±0.09 ratio | ALB (female, 50 mg/kg-day): 4.27 ± 0.46 g/dL | ALPi (female, 50 mg/kg-day): 43.7±5.5 U/L | APTT (female, 50 mg/kg-day): 20.46 s | BUN (female, 50 mg/kg-day): 15.7 ± 2.2 mg/dL | CHOL (female, 50 mg/kg-day): 119.7 ± 25.4 mg/dL | GLOB (female, 50 mg/kg-day): 3.91 ± 0.26 g/dL | GLUC (female, 50 mg/kg-day): 157.1 ± 16.7 mg/dL | HCT (female, 50 mg/kg-day): 47.80±2.45% | HGB (female, 50 mg/kg-day): 15.23 ± 0.72 g/dL | Kidney Weight (female, 50 mg/kg-day): 1.85 g | Kidney/Body Weight (female, 50 mg/kg-day): 0.57% | Kidney/Brain Weight (female, 50 mg/kg-day): 93.9% | Liver Weight (female, 50 mg/kg-day): 8.92 g | Liver/Body Weight (female, 50 mg/kg-day): 2.76% | Liver/Brain Weight (female, 50 mg/kg-day): 454% | MPV (female, 50 mg/kg-day): 7.47 ± 0.44 fL | PT (female, 50 mg/kg-day): 13.48 s | Total BW change (female, 50 mg/kg-day): 132.23 g | Total Food Consumed (female, 50 mg/kg-day): 1595 g | % BW Gain (female, 100 mg/kg-day): 62.41% | % Diff, % BW Gain (female, 100 mg/kg-day): 3.09% | % Diff, Total BW change (female, 100 mg/kg-day): 5.03% | % Diff, Total Food Consumed (female, 100 mg/kg-day): 13.5% | A/G (female, 100 mg/kg-day): 1.08±0.06 ratio | ALB (female, 100 mg/kg-day): 4.32 ± 0.36 g/dL | ALPi (female, 100 mg/kg-day): 49.7±18.4 U/L | APTT (female, 100 mg/kg-day): 17.57 s | BUN (female, 100 mg/kg-day): 16.7 ± 2.6 mg/dL | CHOL (female, 100 mg/kg-day): 122.7 ± 15.6 mg/dL | GLOB (female, 100 mg/kg-day): 4.00 ± 0.27 g/dL | GLUC (female, 100 mg/kg-day): 153.8 ± 19.2 mg/dL | HCT (female, 100 mg/kg-day): 46.45±1.01% | HGB (female, 100 mg/kg-day): 14.77 ± 0.32 g/dL | Kidney Weight (female, 100 mg/kg-day): 1.84 g | Kidney/Body Weight (female, 100 mg/kg-day): 0.58% | Kidney/Brain Weight (female, 100 mg/kg-day): 89.7% | Liver Weight (female, 100 mg/kg-day): 9.17 g | Liver/Body Weight (female, 100 mg/kg-day): 2.85% | Liver/Brain Weight (female, 100 mg/kg-day): 447% | MPV (female, 100 mg/kg-day): 7.34 ± 0.51 fL | PT (female, 100 mg/kg-day): 13.79 s | Total BW change (female, 100 mg/kg-day): 129.49 g | Total Food Consumed (female, 100 mg/kg-day): 1671 g | % BW Gain (female, 200 mg/kg-day): 53.53% | % Diff, % BW Gain (female, 200 mg/kg-day): -11.58% | % Diff, Total BW change (female, 200 mg/kg-day): -11.94% | % Diff, Total Food Consumed (female, 200 mg/kg-day): 6.33% | A/G (female, 200 mg/kg-day): 1.15±0.03 ratio | ALB (female, 200 mg/kg-day): 4.69 ± 0.33 g/dL | ALPi (female, 200 mg/kg-day): 46.9±15.3 U/L | APTT (female, 200 mg/kg-day): 19.34 s | BUN (female, 200 mg/kg-day): 18.0 ± 3.3 mg/dL | CHOL (female, 200 mg/kg-day): 154.8 ± 35.9 mg/dL | GLOB (female, 200 mg/kg-day): 4.10 ± 0.33 g/dL | GLUC (female, 200 mg/kg-day): 155.2 ± 21.4 mg/dL | HGB (female, 200 mg/kg-day): 14.58 ± 0.80 g/dL | Kidney Weight (female, 200 mg/kg-day): 1.83 g | Kidney/Body Weight (female, 200 mg/kg-day): 0.61% | Kidney/Brain Weight (female, 200 mg/kg-day): 91.3% | Liver Weight (female, 200 mg/kg-day): 9.65 g | Liver/Body Weight (female, 200 mg/kg-day): 3.20%
